What all share (test): Ras GTP binding domain inhibition assay (labeled GTP)
One test deals with KRas G12D mutant protein (Homo sapiens (Human), UniProt P01116, G12D). The note with it: 20 μM compound; KRas G12D; read-out: % Inhibition at 20 μM of K-Ras mutant and wild-type protein, KRas G12D.
Another test deals with KRas G12C mutant (Homo sapiens (Human), UniProt P01116, G12C). Particulars: 20 μM compound; KRas G12C; read-out: % Inhibition at 20 μM of K-Ras mutant and wild-type protein, KRas G12C. The gist of the method:
(§1)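 Fluorescence read-out of Cy3-/Cy5-GTP remaining bound to nickel-immobilized His-KRas after washes. Protein was coated overnight at 4° C, then exposed to compound for 3 h at room temperature before a 45 min labeled-GTP incubation.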

The target of a further test is KRas wild type (Homo sapiens (Human), UniProt P01116). The note with it: 20 μM compound; KRas wild type; read-out: % Inhibition at 20 μM of K-Ras mutant and wild-type protein, KRas wild type. In short, it runs like this: as §1
Test [1] concerns the target KRas G12C/Q61H double mutant (Homo sapiens (Human), UniProt P01116, G12C/Q61H). The note with it: 20 μM compound. The gist of the method:
as §1

The target in test [2] is KRas G12D/Q61H double mutant (Homo sapiens (Human), UniProt P01116, G12D/Q61H). Particulars: 20 μM compound. The gist of the method: as §1
In another test the target is KRas Q61H mutant (Homo sapiens (Human), UniProt P01116, Q61H). The note with it: 20 μM compound. In short, it runs like this: as §1
[3] abbreviates: KRas G12C/Q61H double mutant, read-out: % Inhibition at 20 μM of K-Ras mutant and wild-type protein, KRas G12C Q61H.
The mark [4] stands for this setting: KRas G12D/Q61H double mutant, read-out: % Inhibition at 20 μM of K-Ras mutant and wild-type protein, KRas G12D Q61H.
Where [5] appears, read: KRas Q61H, read-out: % Inhibition at 20 μM of K-Ras mutant and wild-type protein, KRas Q61H.
Setting [6] is: read-out: % Inhibition at 20 μM KRas G12C Q61H.
Where [7] appears, read: read-out: % Inhibition at 20 μM KRas G12D Q61H.
Setting [8] is: read-out: % Inhibition at 20 μM KRas Q61H.

The inhibition is how much of the control response was suppressed.

Molecules are shown by their SMILES. Where two headings read alike, the source gives them in different places.

Chain of KRas Q61H mutant (P01116-2 other isoform, or with tags, fused parts or gaps Q61H): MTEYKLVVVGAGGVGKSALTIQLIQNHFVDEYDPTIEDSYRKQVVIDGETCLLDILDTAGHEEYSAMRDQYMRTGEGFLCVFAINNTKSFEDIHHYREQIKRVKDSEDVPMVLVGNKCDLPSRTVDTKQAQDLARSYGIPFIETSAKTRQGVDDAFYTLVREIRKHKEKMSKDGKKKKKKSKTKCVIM
Chain of KRas G12D mutant protein (P01116-2 other isoform, or with tags, fused parts or gaps G12D): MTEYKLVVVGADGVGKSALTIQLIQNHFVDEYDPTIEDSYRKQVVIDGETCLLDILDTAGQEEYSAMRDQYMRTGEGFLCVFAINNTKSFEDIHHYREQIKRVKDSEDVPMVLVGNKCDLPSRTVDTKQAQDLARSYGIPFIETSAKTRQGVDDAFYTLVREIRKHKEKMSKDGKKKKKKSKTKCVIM
Chain of KRas G12D/Q61H double mutant (P01116-2 other isoform, or with tags, fused parts or gaps G12D/Q61H): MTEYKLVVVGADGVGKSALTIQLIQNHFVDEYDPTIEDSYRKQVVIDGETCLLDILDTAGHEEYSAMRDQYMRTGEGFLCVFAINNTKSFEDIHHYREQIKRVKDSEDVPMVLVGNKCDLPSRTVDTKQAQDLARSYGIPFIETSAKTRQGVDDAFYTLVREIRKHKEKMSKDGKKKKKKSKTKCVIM
Chain of KRas G12C mutant (P01116-2 other isoform, or with tags, fused parts or gaps G12C): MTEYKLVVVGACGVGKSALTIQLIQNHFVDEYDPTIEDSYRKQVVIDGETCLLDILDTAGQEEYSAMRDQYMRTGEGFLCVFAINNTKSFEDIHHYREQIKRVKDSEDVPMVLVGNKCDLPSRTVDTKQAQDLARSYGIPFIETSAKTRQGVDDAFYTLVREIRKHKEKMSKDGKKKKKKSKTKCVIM
Chain of KRas wild type (P01116-2 other isoform, or with tags, fused parts or gaps): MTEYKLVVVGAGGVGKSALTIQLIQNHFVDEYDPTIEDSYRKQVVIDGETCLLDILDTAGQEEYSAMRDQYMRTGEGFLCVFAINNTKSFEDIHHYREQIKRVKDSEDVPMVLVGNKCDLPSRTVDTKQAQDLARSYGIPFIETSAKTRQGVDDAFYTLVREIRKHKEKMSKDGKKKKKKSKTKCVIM
Chain of KRas G12C/Q61H double mutant (P01116-2 other isoform, or with tags, fused parts or gaps G12C/Q61H): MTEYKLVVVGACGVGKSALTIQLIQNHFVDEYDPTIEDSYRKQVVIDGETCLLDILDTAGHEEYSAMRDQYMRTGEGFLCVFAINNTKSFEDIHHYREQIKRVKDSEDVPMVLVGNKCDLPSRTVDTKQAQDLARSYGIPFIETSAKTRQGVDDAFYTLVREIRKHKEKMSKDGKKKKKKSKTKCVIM

On to `Cn1cnc(-c2nc(O)c3scc(-c4cccc(OC(F)(F)F)c4)c3n2)c1` [drawing 3606], for which the inhibition at 20 µM at KRas G12D mutant protein fell in the range of 25 to 50%; at KRas G12C mutant, 1 to 25%; at KRas wild type, 25 to 50%.
Consider `COc1ccc(-c2csc3c(O)nc(-c4nccn4C)nc23)cn1` [drawing 3613], for which the inhibition at 20 µM at KRas G12D mutant protein was 51 to 75%; on KRas G12C mutant it was 25 to 50%; on KRas wild type, 25 to 50%.
In the case of `Cc1sc2c(O)nc(-c3nccn3C)nc2c1-c1ccccc1` [drawing 3594], the inhibition at 20 µM on KRas G12D mutant protein, at KRas G12C mutant and at KRas wild type was 25 to 50% in each case.
Consider `Cn1ccnc1-c1nc(O)c2scc(-c3ccccc3)c2n1` [drawing 3614], for which the inhibition at 20 µM on KRas G12D mutant protein lay in the range of 51 to 75%; on KRas G12C mutant it was 25 to 50%; at KRas wild type, 25 to 50%.
Turning to `COC1CCN(c2nc(-c3nccn3C)nc3sc(-c4ccccc4)c(-c4ccccc4)c23)C1` (stereo not drawn) [drawing 3571], the results for the inhibition at 20 µM on KRas G12D mutant protein, on KRas G12C mutant and on KRas wild type were 51 to 75%, 1 to 25% and 25 to 50%, respectively.
Regarding `COCCCNc1nc(-c2nccn2C)nc2sc(-c3ccccc3)c(-c3ccccc3)c12` [drawing 3570], the inhibition at 20 µM on KRas G12D mutant protein, on KRas G12C mutant and on KRas wild type was 51 to 75% throughout.
`Cn1ccnc1-c1nc(NCCCO)c2c(-c3ccccc3)c(-c3ccccc3)sc2n1` [drawing 3579]: the inhibition at 20 µM at KRas G12D mutant protein was 51 to 75%; on KRas G12C mutant it was 25 to 50%; at KRas wild type, 25 to 50%.
For the compound `CC(C)Oc1ccc(-c2c(-c3ccccc3)sc3c(O)nc(-c4nccn4C)nc23)cc1F` [drawing 3611], the results for the inhibition at 20 µM at KRas G12D mutant protein, at KRas G12C mutant and at KRas wild type were 25 to 50%, 1 to 25% and 25 to 50%, respectively.
As to `CC(C)COc1ccc(-c2csc3c(O)nc(-c4cn(C)cn4)nc23)cn1` [drawing 3605], the figures for the inhibition at 20 µM at KRas G12D mutant protein, on KRas G12C mutant and at KRas wild type were 1 to 25%, 25 to 50% and 25 to 50%, respectively.
For the compound `Cc1sc2c(O)nc(-c3nccn3C)nc2c1-c1ccc(OCC(C)C)nc1` [drawing 3600], the inhibition at 20 µM at KRas G12D mutant protein, at KRas G12C mutant and at KRas wild type was 1 to 25% throughout.
As for `CC(CO)Nc1nc(-c2nccn2C)nc2sc(-c3ccccc3)c(-c3ccccc3)c12` (stereo not drawn) [drawing 3578], the inhibition at 20 µM is 1 to 25% at KRas G12D mutant protein, 25 to 50% on KRas G12C mutant and 0% on KRas wild type.
Turning to `CC(C)COc1ccc(-c2csc3c(O)nc(-c4nccn4C)nc23)cn1` [drawing 3612], the results for the inhibition at 20 µM at KRas G12D mutant protein, on KRas G12C mutant and at KRas wild type were 76 to 100%, 25 to 50% and 25 to 50%, respectively.
As to `COCCNc1nc(-c2nccn2C)nc2sc(-c3ccccc3Cl)c(-c3ccccc3)c12` [drawing 3581], the inhibition at 20 µM on KRas G12D mutant protein, on KRas G12C mutant and at KRas wild type was 1 to 25% each time.
For the compound `OCC1(c2ccc(-c3nc(-c4ccccn4)nc(-c4ccc(C5(CO)CC5)cc4)c3Oc3ccccc3)cc2)CC1` [drawing 3532], the inhibition at 20 µM (in test [1] (setting [3]); in test [2] (setting [4]); on KRas Q61H mutant (setting [5])) was 1 to 25% throughout.
As to `COc1nc(-c2ccccn2)nc(Oc2cccc(C(F)(F)F)c2)c1OC` [drawing 3552], the results for the inhibition at 20 µM (in test [1] (setting [3]); in test [2] (setting [4]); at KRas Q61H mutant (setting [5])) were 0%, 1 to 25% and 0%, respectively.
For the compound `O=C(c1csc2c(O)nc(-c3ccccn3)nc12)N1CCOC(c2ccccc2)C1` (stereo not drawn) [drawing 2766], the results for the inhibition at 20 µM (in test [1] (setting [6]); in test [2] (setting [7]); on KRas Q61H mutant (setting [8])) were 25 to 50%, 1 to 25% and 51 to 75%, respectively.
The like results for `Cc1cnc(-c2ccccn2)nc1NC(=O)C(C)c1ccc(C#N)cc1` (stereo not drawn) [drawing 2797] were, in that order, 51 to 75%, 1 to 25% and 51 to 75%.
Regarding `O=C(c1csc2c(O)nc(-c3ccccn3)nc12)N1CCNC(c2ccccc2Cl)C1` (stereo not drawn) [drawing 2806], the figures for the inhibition at 20 µM (in test [1] (setting [6]); in test [2] (setting [7]); on KRas Q61H mutant (setting [8])) were 51 to 75%, 25 to 50% and 76 to 100%, respectively.

For the origin of these results see US10940139B2, “Compounds that interact with the Ras superfamily for the treatment of cancers, inflammatory diseases, rasopathies, and fibrotic disease” (Shy Therapeutics LLC, priority 2017, dated 2021).
